In patent US11866450B2, “Modulators of Cystic Fibrosis Transmembrane Conductance regulator, pharmaceutical compositions, methods of treatment, and process for making the modulators” (priority 2018, dated 2024):

Target: CFTR-mediated chloride transport (Homo sapiens, UniProt P13569)
Type: cell-based
Conditions: enteroid cells incubated with test compound 18-24 hours, acute 10 μM forskolin and 300 nM Compound III; for Max. Activity: % of chloride transport with 3 μM Compound A, 3 μM Compound II and 300 nM acute Compound III triple combination control
How it was run: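 Human intestinal enteroid cells incubated with compound 18–24 h at 37° C., then membrane potential dye (FLIPR) read 15 min after chloride-free stimulation with 10 μM forskolin, 100 μM IBMX and 300 nM Compound III. AUC expressed as % of triple-combination control (3 μM Compound A, 3 μM Compound II, 300 nM Compound III).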

CFTR-mediated chloride transport, sequence (P13569 whole entry, looked up): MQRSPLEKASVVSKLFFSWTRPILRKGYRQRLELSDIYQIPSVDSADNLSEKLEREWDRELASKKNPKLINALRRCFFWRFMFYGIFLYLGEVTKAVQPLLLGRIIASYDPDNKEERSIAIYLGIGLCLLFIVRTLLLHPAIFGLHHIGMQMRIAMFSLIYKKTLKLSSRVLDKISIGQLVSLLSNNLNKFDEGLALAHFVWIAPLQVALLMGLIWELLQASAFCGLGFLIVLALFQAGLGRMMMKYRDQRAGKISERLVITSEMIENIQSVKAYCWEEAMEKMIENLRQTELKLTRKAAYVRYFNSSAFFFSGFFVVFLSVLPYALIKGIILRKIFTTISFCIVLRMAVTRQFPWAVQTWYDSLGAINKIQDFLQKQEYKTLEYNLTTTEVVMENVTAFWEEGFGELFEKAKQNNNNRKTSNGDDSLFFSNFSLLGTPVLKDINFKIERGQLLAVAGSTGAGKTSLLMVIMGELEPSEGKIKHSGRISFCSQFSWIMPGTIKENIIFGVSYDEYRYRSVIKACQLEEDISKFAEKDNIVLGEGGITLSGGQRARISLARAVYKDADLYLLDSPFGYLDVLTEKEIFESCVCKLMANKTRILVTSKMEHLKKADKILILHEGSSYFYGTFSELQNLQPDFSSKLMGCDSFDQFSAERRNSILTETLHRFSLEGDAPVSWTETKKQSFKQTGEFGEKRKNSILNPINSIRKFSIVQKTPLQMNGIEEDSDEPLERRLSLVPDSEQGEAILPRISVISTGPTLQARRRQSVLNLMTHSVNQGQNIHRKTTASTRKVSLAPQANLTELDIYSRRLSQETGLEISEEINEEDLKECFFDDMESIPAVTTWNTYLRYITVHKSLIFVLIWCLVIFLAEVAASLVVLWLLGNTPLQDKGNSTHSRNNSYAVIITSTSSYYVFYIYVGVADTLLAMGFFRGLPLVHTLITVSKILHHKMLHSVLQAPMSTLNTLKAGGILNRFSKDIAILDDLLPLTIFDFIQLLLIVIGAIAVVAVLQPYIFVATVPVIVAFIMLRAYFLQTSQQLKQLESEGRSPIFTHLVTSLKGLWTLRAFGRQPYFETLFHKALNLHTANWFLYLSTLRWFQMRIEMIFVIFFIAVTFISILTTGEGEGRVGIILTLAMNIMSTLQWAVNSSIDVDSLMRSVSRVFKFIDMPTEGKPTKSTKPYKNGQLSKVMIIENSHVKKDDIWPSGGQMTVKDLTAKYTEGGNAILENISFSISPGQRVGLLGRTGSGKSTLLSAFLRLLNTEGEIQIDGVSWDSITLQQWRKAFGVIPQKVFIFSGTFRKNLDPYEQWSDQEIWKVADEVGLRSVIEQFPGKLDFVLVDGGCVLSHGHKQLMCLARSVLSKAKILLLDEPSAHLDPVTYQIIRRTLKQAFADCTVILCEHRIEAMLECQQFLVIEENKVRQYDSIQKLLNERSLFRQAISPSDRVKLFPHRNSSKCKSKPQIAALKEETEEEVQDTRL

| SMILES | EC50 [nM] | Max. Activity |
| --- | --- | --- |
| Cc1ccc2nc1S(=O)(=O)NC(=O)c1ccc(-n3ccc(OCCC4(C(F)(F)F)CC4)n3)nc1N1C[C@H](CCCN2)CC1(C)C (single isomer, unassigned) [Compound 149, 12,12,22-trimethyl-8-(3-{2-[1-(trifluoromethyl)cyclopropyl]ethoxy}-1H-pyrazol-1-yl)-2λ^6-thia-3,9,11,18,23-pentaazatetracyclo[17.3.1.111,14.05,10]tetracosa-1(23),5(10),6,8,19,21-hexaene-2,2,4-trione] | < 1000 | +++ (+++ is >60%) |
| CC1(C)C[C@H]2CCCn3ccc(n3)S(=O)(=O)NC(=O)c3ccc(-n4ccc(OCCCC5(C(F)(F)F)CC5)n4)nc3N1C2 (single isomer, unassigned) [Compound 165, 20,20-dimethyl-4-(3-{3-[1-(trifluoromethyl)cyclopropyl]propoxy}-1H-pyrazol-1-yl)-10λ^6-thia-1,3,9,14,22-pentaazatetracyclo[16.2.1.111,14.02,7]docosa-2(7),3,5,11(22),12-pentaene-8,10,10-trione] | > 3000 | + (+ is <30%) |
| CC1(C)C[C@H]2C[C@@H](F)CNc3cccc(n3)S(=O)(=O)NC(=O)c3ccc(-n4ccc(OCCC5C6(CC6)C56CC6)n4)nc3N1C2 (single isomer, unassigned) [Compound 309, 8-[3-(2-{Dispiro[2.0.2.1]heptan-7-yl}ethoxy)-1H-pyrazol-1-yl]-16-fluoro-12,12-dimethyl-2λ^6-thia-3,9,11,18,23-pentaazatetracyclo[17.3.1.111,14.05,10]tetracosa-1(22),5,7,9,19(23),20-hexaene-2,2,4-trione] | < 1000 | +++ (+++ is >60%) |
| CC1CN(c2ccc3c(n2)N2C[C@@H](CCCNc4cccc(n4)S(=O)(=O)NC3=O)CC2(C)C)C(=O)C1CCC(C)(C)C (stereo partly drawn) [Compound 97, (14S)-8-[3-(3,3-dimethylbutyl)-4-methyl-2-oxopyrrolidin-1-yl]-12,12-dimethyl-2λ^6-thia-3,9,11,18,23-pentaazatetracyclo[17.3.1.111,14.05,10]tetracosa-1(22),5,7,9,19(23),20-hexaene-2,2,4-trione] | < 1000 | +++ (+++ is >60%) |
| CC1(C)C[C@@H]2CCCNc3cccc(n3)S(=O)(=O)NC(=O)c3ccc(N4CC[C@H](OCCC56CC7CC(CC(C7)C5)C6)C4=O)nc3N1C2 (single isomer, unassigned) [Compound 240] | < 1000 | ++ (++ is 30-60%) |
| CC1(C)C[C@@H]2CCCNc3cccc(n3)S(=O)(=O)NC(=O)c3ccc(N4CC[C@H](CCCC5(C(F)(F)F)CC5)C4=O)nc3N1C2 (single isomer, unassigned) [Compound 174] | < 1000 | +++ (+++ is >60%) |
| CC1(C)CCC2CNc3cccc(n3)S(=O)(=O)NC(=O)c3ccc(-n4ccc(OCCC5(C(F)(F)F)CC5)n4)nc3N21 (stereo not drawn) [Compound 41, 7,7-dimethyl-11-(3-{2-[1-(trifluoromethyl)cyclopropyl]ethoxy}-1H-pyrazol-1-yl)-17λ^6-thia-2,8,10,16,22-pentaazatetracyclo[16.3.1.04,8.09,14]docosa-1(22),9,11,13,18,20-hexaene-15,17,17-trione] | > 3000 | + (+ is <30%) |
| CC1(C)CC[C@H]2CCCOc3cccc(c3)S(=O)(=O)NC(=O)c3ccc(-n4ccc(OCCC5(C(F)(F)F)CC5)n4)nc3N21 (single isomer, unassigned) [Compound 8, 12,12-dimethyl-8-(3-{2-[1-(trifluoromethyl)cyclopropyl]ethoxy}-1H-pyrazol-1-yl)-19-oxa-2λ^6-thia-3,9,11-triazatetracyclo[18.3.1.05,10.011,15]tetracosa-1(24),5(10),6,8,20,22-hexaene-2,2,4-trione] | > 3000 | + (+ is <30%) |
| CC1(C)C[C@H]2CCCn3ccc(n3)S(=O)(=O)NC(=O)c3ccc(N4CC[C@H](OCCC5(C(F)(F)F)CC5)C4=O)nc3N1C2 (single isomer, unassigned) [Compound 191, 20,20-Dimethyl-4-(2-oxo-3-{2-[1-(trifluoromethyl)cyclopropyl]ethoxy}pyrrolidin-1-yl)-10λ^6-thia-1,3,9,14,22-pentaazatetracyclo[16.2.1.111,14.02,7]docosa-2,4,6,11(22),12-pentaene-8,10,10-trione] | < 1000 | ++ (++ is 30-60%) |
| CC(C)(C)CCN1CCN(c2ccc3c(n2)N2CC(CCCn4ccc(n4)S(=O)(=O)NC3=O)CC2(C)C)C1=O (stereo not drawn) [Compound 168, 4-[3-(3,3-dimethylbutyl)-2-oxoimidazolidin-1-yl]-20,20-dimethyl-10λ^6-thia-1,3,9,14,22-pentaazatetracyclo[16.2.1.111,14.02,7]docosa-2,4,6,11(22),12-pentaene-8,10,10-trione] | > 3000 | + (+ is <30%) |
| Cc1c2cnn1CCCC1CN(c3nc(-n4ccc(OCC(C)(C)C(F)(F)F)n4)ccc3C(=O)NS2(=O)=O)C(C)(C)C1 (stereo not drawn) [Compound 282, 20,20,22-trimethyl-4-[3-(3,3,3-trifluoro-2,2-dimethylpropoxy)-1H-pyrazol-1-yl]-10λ^6-thia-1,3,9,13,14-pentaazatetracyclo[16.2.1.111,14.02,7]docosa-2,4,6,11(22),12-pentaene-8,10,10-trione] | > 3000 | + (+ is <30%) |
| Cc1cn2nc1S(=O)(=O)NC(=O)c1ccc(-n3ccc(OCCC(C4CC4)C4CC4)n3)nc1N1C[C@H](CCC2)CC1(C)C (single isomer, unassigned) [Compound 202, 4-[3-(3,3-dicyclopropylpropoxy)-1H-pyrazol-1-yl]-12,20,20-trimethyl-10λ^6-thia-1,3,9,14,22-pentaazatetracyclo[16.2.1.111,14.02,7]docosa-2(7),3,5,11(22),12-pentaene-8,10,10-trione] | < 1000 | ++ (++ is 30-60%) |
| CC(C)(C)CCC1CCN(c2ccc3c(n2)N2C[C@@H](CCCNc4cccc(n4)S(=O)(=O)NC3=O)CC2(C)C)C1=O (stereo partly drawn) [Compound 79, (14S)-8-[3-(3,3-dimethylbutyl)-2-oxopyrrolidin-1-yl]-12,12-dimethyl-2λ^6-thia-3,9,11,18,23-pentaazatetracyclo[17.3.1.111,14.05,10]tetracosa-1(23),5,7,9,19,21-hexaene-2,2,4-trione] | < 1000 | ++ (++ is 30-60%) |
| CC1(C)C[C@H]2CCCn3ccc(n3)S(=O)(=O)NC(=O)c3ccc(-n4ccc(OCCC5(C(F)(F)F)CC5)n4)nc3N1C2 [Compound 84, (18R)-20,20-Dimethyl-4-(3-{2-[1-(trifluoromethyl)cyclopropyl]ethoxy}-1H-pyrazol-1-yl)-10λ^6-thia-1,3,9,14,22-pentaazatetracyclo[16.2.1.111,14.02,7]docosa-2,4,6,11(22),12-pentaene-8,10,10-trione] | > 3000 | + (+ is <30%) |
| CC1(C)C[C@H]2CCCNc3cccc(n3)S(=O)(=O)NC(=O)c3ccc(-n4ccc(OCC5(C(F)(F)F)CC5)n4)nc3N1C2 (single isomer, unassigned) [Compound 22, 12,12-dimethyl-8-(3-{[1-(trifluoromethyl)cyclopropyl]methoxy}-1H-pyrazol-1-yl)-2λ^6-thia-3,9,11,18,23-pentaazatetracyclo[17.3.1.111,14.05,10]tetracosa-1(23),5(10),6,8,19,21-hexaene-2,2,4-trione] | < 1000 | +++ (+++ is >60%) |
